Experimental findings from patent publication US9045524B2, “Selective caspase inhibitors and uses thereof” (NOVAGENESIS FOUNDATION, priority 2009, dated 2015) are described below.

The target in experiment [1] is T1, Caspase-3 (Homo sapiens (Human), UniProt P42574). Put plainly: Caspase-3 Inhibitor Drug Screening Kit, fluorometric (AFC liberation). The format is biochemical.
Target sequence in this assay (P42574 29-277): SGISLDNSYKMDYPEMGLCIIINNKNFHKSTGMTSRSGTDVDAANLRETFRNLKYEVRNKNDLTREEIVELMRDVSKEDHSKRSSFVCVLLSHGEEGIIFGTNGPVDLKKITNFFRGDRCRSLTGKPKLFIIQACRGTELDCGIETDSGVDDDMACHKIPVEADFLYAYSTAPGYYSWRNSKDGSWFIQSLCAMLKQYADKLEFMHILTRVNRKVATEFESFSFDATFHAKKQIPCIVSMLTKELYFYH
Procedure: (§3) The level of inhibition of caspase-1, -3, -5, -7, -9 activity was determined by comparison of the relative fluorescence intensity in samples with or without the compound.
The target in experiment [2] is T2, Caspase-9 (Homo sapiens (Human), UniProt P55211). Description: Caspase-9 Inhibitor Drug Screening Kit, fluorometric (AFC liberation). The format is biochemical. Particulars: 30-minute incubation at 37° C.; approximations of the average values; read-out: Caspase enzymatic activity, IC50 (uM) Caspase 9.
Target sequence in this assay (P55211 whole entry): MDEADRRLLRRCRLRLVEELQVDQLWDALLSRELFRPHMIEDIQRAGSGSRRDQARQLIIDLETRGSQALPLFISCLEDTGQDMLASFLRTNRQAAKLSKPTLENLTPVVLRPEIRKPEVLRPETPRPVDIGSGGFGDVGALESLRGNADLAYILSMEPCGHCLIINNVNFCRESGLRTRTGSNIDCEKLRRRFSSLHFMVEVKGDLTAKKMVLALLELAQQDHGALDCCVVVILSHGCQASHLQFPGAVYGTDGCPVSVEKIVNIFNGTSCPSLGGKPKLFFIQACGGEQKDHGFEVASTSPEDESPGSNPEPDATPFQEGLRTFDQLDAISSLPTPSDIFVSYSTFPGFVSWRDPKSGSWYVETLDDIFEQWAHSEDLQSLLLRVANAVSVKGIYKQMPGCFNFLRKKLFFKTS
Procedure: as §3
In experiment [3] the test system is proteolytic cleavage of PARP (poly ADP-ribose polymerase) in Hela cells. Description: Inhibition of staurosporine-induced PARP cleavage in live Hela cells. The format is cell-based. Put shortly:
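HeLa cells in 96 well plates were exposed for 4 hours to the apoptosis inducer staurosporine with or without test compound. Fixed cells were stained with a fluorescein-labeled anti-cleaved PARP antibody and counterstained with Hoechst33342. Cellomics imaging gave the fraction of nuclei positive for cleaved PARP, and inhibition was computed relative to staurosporine-only treatment.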

In a further experiment the target is Caspase-2 (Homo sapiens (Human), UniProt P42575). Description: Fluorometric enzymatic assay, active recombinant Caspase-2. Format: biochemical. Particulars: 10-point titration 0.1 nM to 3.3 μM, 30-minute incubation at 37° C.; read-out: IC50 values (μM) Caspase-2. On the procedure: (§1) . In brief, each compound was serially diluted for a final test concentration range of 0.1 nM to 3.3 μM (10-point titration). Each active recombinant Caspase (Active Recombinant Caspase Set IV™ (BioVision, Cat# K233-10-25)) was added to the respective wells of the 96-well High Efficiency™ plates (Molecular Devices, Cat#75-000-0005), followed by the addition of the diluted test compounds. DMSO (Final=1%) or Z-VAD-FMK (Caspase-Family Inhibitor, Z-VAD-FMK (BioVision, Cat#1010-100), Final concentration=20 uM) was added in the designated wells as a background control or positive inhibitor control respectively. Each dilution of the test compounds was tested in duplicates, whereas the DMSO or Z-VAD-FMK controls were tested in triplicates. The synthetic peptide substrate specific for each Caspase (BioVision) was then added to the respective wells, which when cleaved by the active caspase releases free AFC that can be quantified by fluorometry. After a 30-minute incubation at 37° C., the plates were read using the Flexstation 3™ with a 400 nm excitation filter and a 505 nm emission filter (cutoff at 495 nm). The inhibition efficiency and the IC50 values of the test compounds were then determined by comparing the fluorescence intensity (FI) of the test compounds with that of the DMSO control.
(§2) The SoftMax Pro Software™ (v5.2 rev C, Molecular Devices) was used for data analysis. The % Inhibition is calculated by: % Inhibition=[FI(DMSO)−FI(test sample)/FI(DMSO)]×100. The % Inhibition vs. Log(concentration) was plotted, and the curve was fitted using the 5-parameter fit of the software.

Another experiment addresses Caspase-5 (Homo sapiens (Human), UniProt P51878). Description: Fluorometric enzymatic assay, active recombinant Caspase-5. Format: biochemical. Particulars: 10-point titration 0.1 nM to 3.3 μM, 30-minute incubation at 37° C.; read-out: IC50 values (μM) Caspase-5. The method, then: as §1, §2
The target in another experiment is Caspase-8 (Homo sapiens (Human), UniProt Q14790). Description: Fluorometric enzymatic assay, active recombinant Caspase-8. Format: biochemical. To be noted: 10-point titration 0.1 nM to 3.3 μM, 30-minute incubation at 37° C.; read-out: IC50 values (μM) Caspase-8. On the procedure:
as §1, §2

A further experiment has as its target Caspase-1 (Homo sapiens (Human), UniProt P29466). Put plainly: Fluorometric enzymatic assay, active recombinant Caspase-1.
Experiment [4] addresses T1, Caspase-3. Put plainly: Fluorometric enzymatic assay, active recombinant Caspase-3.
Target sequence in this assay (P42574 29-175): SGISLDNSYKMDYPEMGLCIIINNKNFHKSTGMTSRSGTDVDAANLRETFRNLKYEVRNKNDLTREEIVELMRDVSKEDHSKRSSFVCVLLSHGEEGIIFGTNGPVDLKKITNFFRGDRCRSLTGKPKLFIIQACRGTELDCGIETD
Target sequence in this assay (P42574 176-277): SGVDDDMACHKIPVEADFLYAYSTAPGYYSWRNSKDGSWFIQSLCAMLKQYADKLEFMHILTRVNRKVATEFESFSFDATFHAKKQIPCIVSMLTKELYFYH
Procedure: (§4) Each dilution of the test compounds was tested in duplicates, whereas the DMSO or Z-VAD-FMK controls were tested in triplicates. […] The inhibition efficiency and the IC50 values of the test compounds were then determined by comparing the fluorescence intensity (FI) of the test compounds with that of the DMSO control.
Another experiment has as its target Caspase-4 (Homo sapiens (Human), UniProt P49662). Description: Fluorometric enzymatic assay, active recombinant Caspase-4.
A further experiment addresses Caspase-7 (Homo sapiens (Human), UniProt P55210). Description: Fluorometric enzymatic assay, active recombinant Caspase-7.
In experiment [5] the target is T2, Caspase-9. Put plainly: Fluorometric enzymatic assay, active recombinant Caspase-9. Particulars: read-out: IC50 values (μM) Caspase-9; 10-point titration 0.1 nM to 3.3 μM, 30-minute incubation at 37° C.
Target sequence in this assay (P55211 whole entry, looked up, change not shown): as the sequence (P55211 whole entry) above
Target sequence in this assay (P55211 whole entry, looked up, change not shown): as the sequence (P55211 whole entry) above
Procedure: as §4

Sequence of Caspase-1 (P29466 whole entry, looked up): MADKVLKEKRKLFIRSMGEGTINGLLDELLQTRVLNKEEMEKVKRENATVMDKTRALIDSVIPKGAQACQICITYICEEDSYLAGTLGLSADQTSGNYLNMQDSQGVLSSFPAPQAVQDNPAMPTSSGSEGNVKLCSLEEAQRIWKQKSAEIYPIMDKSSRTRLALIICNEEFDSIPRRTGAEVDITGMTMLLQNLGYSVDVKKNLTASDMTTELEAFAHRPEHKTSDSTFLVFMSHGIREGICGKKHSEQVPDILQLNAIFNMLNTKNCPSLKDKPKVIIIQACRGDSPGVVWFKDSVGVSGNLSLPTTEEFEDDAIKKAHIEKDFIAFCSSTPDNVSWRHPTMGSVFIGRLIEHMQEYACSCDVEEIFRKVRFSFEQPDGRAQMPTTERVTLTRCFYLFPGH
Sequence of Caspase-1 (P29466 whole entry, looked up): as above
Sequence of Caspase-7 (P55210 whole entry, looked up): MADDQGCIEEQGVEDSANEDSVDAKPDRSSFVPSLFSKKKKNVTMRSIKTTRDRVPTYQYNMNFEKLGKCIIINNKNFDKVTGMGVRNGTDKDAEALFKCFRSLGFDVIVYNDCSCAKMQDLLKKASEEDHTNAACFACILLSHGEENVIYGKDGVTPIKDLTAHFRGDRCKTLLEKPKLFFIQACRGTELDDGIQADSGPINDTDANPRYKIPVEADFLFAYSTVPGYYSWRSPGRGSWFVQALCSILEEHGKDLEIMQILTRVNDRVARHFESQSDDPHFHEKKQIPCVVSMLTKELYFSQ
Sequence of Caspase-7 (P55210 whole entry, looked up): as above
Sequence of Caspase-4 (P49662 81-270): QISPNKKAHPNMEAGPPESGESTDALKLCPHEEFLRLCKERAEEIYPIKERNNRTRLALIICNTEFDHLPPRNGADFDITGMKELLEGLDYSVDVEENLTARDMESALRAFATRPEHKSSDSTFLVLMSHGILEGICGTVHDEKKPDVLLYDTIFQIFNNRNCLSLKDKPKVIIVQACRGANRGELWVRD
Sequence of Caspase-4 (P49662 290-377): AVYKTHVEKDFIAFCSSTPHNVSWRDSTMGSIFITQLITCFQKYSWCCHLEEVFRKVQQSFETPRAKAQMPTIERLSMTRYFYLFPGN
Sequence of Caspase-5 (P51878 whole entry, looked up): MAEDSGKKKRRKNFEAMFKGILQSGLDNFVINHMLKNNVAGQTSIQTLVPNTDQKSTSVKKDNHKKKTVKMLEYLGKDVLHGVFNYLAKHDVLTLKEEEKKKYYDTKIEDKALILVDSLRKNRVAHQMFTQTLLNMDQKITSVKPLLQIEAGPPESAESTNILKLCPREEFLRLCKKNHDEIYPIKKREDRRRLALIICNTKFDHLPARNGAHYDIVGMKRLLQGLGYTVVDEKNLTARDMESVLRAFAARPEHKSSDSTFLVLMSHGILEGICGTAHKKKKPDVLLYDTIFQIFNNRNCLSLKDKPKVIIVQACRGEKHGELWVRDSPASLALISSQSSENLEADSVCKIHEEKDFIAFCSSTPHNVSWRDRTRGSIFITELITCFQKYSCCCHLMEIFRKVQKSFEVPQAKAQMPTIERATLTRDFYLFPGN
Sequence of Caspase-5 (P51878 whole entry, looked up): as above
Sequence of Caspase-2 (P42575 170-325): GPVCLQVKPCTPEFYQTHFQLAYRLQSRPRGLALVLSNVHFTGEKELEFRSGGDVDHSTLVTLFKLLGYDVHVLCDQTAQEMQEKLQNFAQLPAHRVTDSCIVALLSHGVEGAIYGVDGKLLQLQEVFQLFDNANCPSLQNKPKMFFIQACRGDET
Sequence of Caspase-2 (P42575 348-452): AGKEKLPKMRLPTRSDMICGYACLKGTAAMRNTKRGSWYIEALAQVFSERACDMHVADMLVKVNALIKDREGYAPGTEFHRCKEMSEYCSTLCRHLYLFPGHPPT
Sequence of Caspase-8 (Q14790 217-374): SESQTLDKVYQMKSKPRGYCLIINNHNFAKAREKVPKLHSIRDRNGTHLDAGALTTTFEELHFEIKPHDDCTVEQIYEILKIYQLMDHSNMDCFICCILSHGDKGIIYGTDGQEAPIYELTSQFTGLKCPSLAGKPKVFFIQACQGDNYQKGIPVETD
Sequence of Caspase-8 (Q14790 385-479): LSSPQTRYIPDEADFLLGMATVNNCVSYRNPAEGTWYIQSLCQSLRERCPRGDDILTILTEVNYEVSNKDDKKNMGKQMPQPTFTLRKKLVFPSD
Procedure for Caspase-1: as §4
Procedure for Caspase-4: as §4
Procedure for Caspase-7: as §4

By IC50 is commonly meant the concentration at which inhibition is half-maximal. Usually inhibition stands for how much of the control response was suppressed. With `CC(C)[C@H](NC(=O)[C@@H](NC(=O)[C@H](CC(=O)O)NC(=O)OCc1ccccc1)c1ccccc1)C(=O)N[C@H](/C=C/S(C)(=O)=O)CC(=O)O` [Compound 53, Z-Asp-Phg-Val-Aspmethyl vinyl sulfone], the IC50 was 0.06 µM on Caspase-3 [1] (30-minute incubation at 37° C., approximations of the average values, read-out: Caspase enzymatic activity, IC50 (uM) Caspase 3); 0.03 to 0.09 µM at Caspase-3 [1] (read-out: IC50 caspase-3); greater than 10 µM on Caspase-9 [2]; greater than 3.33 µM on Caspase-2; greater than 3.33 µM at Caspase-5; greater than 3.33 µM on Caspase-8. For the same compound, the IC50 is 2.1 µM on Caspase-1 (read-out: IC50 values (μM) Caspase-1, 10-point titration 0.1 nM to 3.3 μM, 30-minute incubation at 37° C.); 0.09 µM on Caspase-3 [4] (read-out: IC50 values (μM) Caspase-3, 10-point titration 0.1 nM to 3.3 μM, 30-minute incubation at 37° C.); 2.8 µM at Caspase-4 (read-out: IC50 values (μM) Caspase-4, 10-point titration 0.1 nM to 3.3 μM, 30-minute incubation at 37° C.); 0.8 µM on Caspase-7 (read-out: IC50 values (μM) Caspase-7, 10-point titration 0.1 nM to 3.3 μM, 30-minute incubation at 37° C.); greater than 3.33 µM on Caspase-9 [5]. Besides, on Caspase-3 [1] (IC50 caspase-7 versus caspase-3), the “selectivity of Caspase-3 over Caspase-7 based on IC50 values” is “about 12 fold”. The “effectivity in inhibiting PARP cleavage” value in experiment [3] (Hela cells, staurosporine) is listed as “highly effective relative to DEVD-fmk”. Besides, the inhibition at 50 µM in experiment [3] (Homo sapiens, HeLa, 4 h, read-out: % inhibition of PARP cleavage at 50 uM compound, Hela cells, staurosporine 4 hours, 50 uM compound) was greater than 50%. Besides, the “inhibitory activity towards Caspase-1” value at Caspase-1 (FIG. 5) was “inhibitory activity”. Also, the “inhibitory activity towards Caspase-3” value at Caspase-3 [4] (FIG. 5) was “high inhibitory activity”. Moreover, the “inhibitory activity towards Caspase-4” value at Caspase-4 (FIG. 5) is on record as “inhibitory activity”. Also, at Caspase-7 (FIG. 5), the “inhibitory activity towards Caspase-7” value is “high inhibitory activity”.
